In patent US11987835B2, “Amino acid-sensing diguanylate cyclase and methods of use” (priority 2019, dated 2024):

Assays:
[1] = test system: Aer01 colonization of larval zebrafish gut; assay: Bacterial competitions in vivo (competitive index); details: GF zebrafish, ligand supplemented into inoculum and flask medium (1 mM proline)
Protocol: Bacterial competitions in vivo. For in vivo bacterial competitions, strains (purified evolved isolates, or Aer01 genetic variants) were grown overnight in TSB from freezer stocks. 1 ml of the overnight cultures were pelleted (8,700 rcf, 2 min), then resuspended in 1 ml sterile EM. Competing strains were mixed, then added to flasks of 4 dpf GF (or CV fish) WT fish at ˜10^6 CFU/ml. For all competitions, sfGFP-tagged Aer01 was used as the “reference” strain. […] At 7 dpf, fish intestines were dissected as described above, and each intestine transferred into a 1.6 ml tube containing 500 μl sterile EM and ˜100 μl bullet beads, then bullet blended as described above. Homogenized samples were diluted appropriately in sterile EM, spread plated on TSA plates, incubated at 30° C. for 1-2 days, and the colonies counted. Strains were differentiated by fluorescence microscopy. Competitive index (CI) was calculated by dividing the strain ratio (test strain divided by reference strain) in the gut at the end of the competition by the strain ratio in the inoculum ((test/reference)gut/(test/reference)inoculum) (FIG. 1). The limit of detection is 5 CFU/gut; for samples were one strain was below the limit of detection, the abundance was set to 5 CFU in order to calculate a CI; this was the case for few of the samples.
To test whether WT motility, and therefore immigration into the host, could be increased with addition of ligands, competitions were performed as previously described, this time supplementing the inoculum and flask medium with SpdE ligand.

Aer01 [2] = format: cell-based, Aeromonas veronii
Protocol: Live imaging and quantification of Aer01 motility. […] EM containing proline or valine (pH adjusted to 7.8 with HCl/NaOH) was added to the wells to generate the desired final concentrations of amino acid (0, 1 nM, 10 nM, 100 nM, 1 μM, or 1 mM) and cell densities of OD 0.1, each performed in triplicate. The tray was covered by parafilm and incubated at 30° C. for 5 hours. Cells were imaged between hour 5-6. Prior to imaging, bacterial samples were moved to a temperature-controlled box housing the microscope, heated to 30° C. 2 ul of bacteria from treatments were applied to a well slide (MP Biomedicals 10-well multitest slides #096041805), covered with a coverslip, and imaged immediately. Videos of bacteria were captured using a Nikon Eclipse Ti inverted microscope on the GFP channel using 20× magnification at 39 frames per second. Videos of treated bacteria were analyzed with particle tracking software (Parthasarathy, Nature Methods 9:724-236, 2012) using these settings: “objects” were identified using bpfilter 3, nsize 7, and gradobjsize 0. A standard threshold of 3.99-6 was applied, depending on the degree of background. Motile bacteria were defined as objects tracked over at least 1 s (39 frames) with a standard deviation in position of pixels/frame of at least 1.
To do this, Aer01 was incubated in medium+/−ligand (ranging between 0 and 1 mM) then wet-mounted and imaged on an inverted microscope.

[3] = test system: Aer01 immigration into GF zebrafish; assay: Migration rate experiments; format: in vivo; details: WT +/- valine
Protocol: Migration rate experiments. Strains were grown, shaking, overnight in TSB, at 30° C. Overnight cultures were pelleted and washed in sterile EM, then diluted to 1:100 in sterile EM, and incubated at room temperature for ˜2 hrs. If amino acid SpdE ligands were tested, amino acids were added to the prepared inoculum and fish flasks before the 2 hr incubation. GF zebrafish (5 or 6 dpf) inoculated with the cultures to yield ˜10^5 CFU/ml. The fish were then split into replicate flasks containing 10 fish and 10 ml inoculated flask EM. An EM sample was taken and plated immediately to quantify CFU/ml of the inoculating strain. […] After 24-48 hr incubation, colonies on plates were counted.
To more directly investigate differences in immigration rate, migration rate experiments were performed. Fish were mono-associated (inoculated with individual strains) via the EM, then 10 fish were dissected every 60 minutes, and the fraction of fish colonized at each time point was calculated (FIG. 3). […] This experiment assessed the ability of Aer01 variants to migrate into GF fish from the environment during initial colonization. […] After allowing 15 hrs for Aer01 to migrate from donor to recipient fish, the fish were dissected and determined the abundance of Aer01 in all fish within each flask (FIG. 6D).

[4] = test system: SpdE diguanylate cyclase activity in Aer01; assay: Intracellular cyclic di-GMP quantification; format: cell-based, Aeromonas veronii; details: WT Aer01, 1 mM amino acid, ~4 hrs, versus no ligand
Protocol: Intracellular cyclic di-GMP quantification. […] Cultures were incubated, shaking, at 30° C. for 4 hours. Sample OD600 was measured and the entire volume pelleted. Sample pellets were resuspended in 300 μL ice cold extraction buffer (40/40/20 acetonitrile/methanol/water+0.1 N formic acid), iced for 30 min, then pelleted at maximum speed in tabletop microcentrifuge for 10 min. The supernatant was transferred to a new tube and stored at −80° until being vacuum concentrated until completely evaporated.
Dried samples were resuspended in 100 μL Ultra Performance liquid chromatography-grade water and centrifuged for two minutes at 18,000×g (Eppendorf® Centrifuge 5242R). The debris-free supernatants were moved to LCMS Certified Clear Glass 12×32 mm screw neck max recovery vials (Waters®). Ten microliters of each sample were analyzed using LC-MS/MS on a Quattro Premier XE mass spectrometer coupled with an Acquity Ultra Performance LC system (Waters®). Cyclic di-GMP was detected with electrospray ionization using multiple reaction monitoring in negative-ion mode at m/z 689.16→344.31. […]
In the case of SpdE, ligand binding to the PAS/Cache was hypothesized to regulate SpdE diguanylate cyclase activity, thereby altering intracellular levels of c-di-GMP. To test this, WT and ΔspdE Aer01 were incubated in the presence or absence of amino acid ligands for ˜4 hrs, then pelleted and lysed the cells to extract and quantify intracellular c-di-GMP.

Aer01 [5] = assay: Biofilm assay (crystal violet); format: cell-based, Aeromonas veronii; details: WT Aer01, 1 mM ligand, 48 hrs
Protocol: Biofilm Assay. […] To the wells of a sterile 96-well plate (Corning, flat-bottom, #3595), 150 μL of each resuspended culture was added, in triplicate. A blank control well was added for each condition using the appropriate uninoculated media. This plate was incubated at 30° C., stationary, for 48 hours. After incubation, the biofilms were quantified using a standard crystal violet biofilm staining procedure. […] Briefly, the supernatant was removed from each well, then the wells gently rinsed three times with 150 μL sterile EM. Then, 150 μL 0.1% crystal violet was added to each well and the plate was incubated at room temperature for 10 minutes, followed by five rinses with 150 μL sterile EM. To destain, 150 μL 95% ethanol was added to each well and the plate was incubated at room temperature for 10 minutes. Each well was mixed well and the contents transferred to a clean 96-well plate and the absorbance (570 nm) was read on a FLUOstar Omega microplate reader (BMG Labtech, Offenburg, Germany).

Aer01 [6] = format: cell-based, Aeromonas veronii; details: WT Aer01, 1 mM ligand versus WT without ligand, mean
Protocol: Exploration Assay. Overnight cultures (TSB) of Aer01 Strains were pelleted (1 mL), and resuspended in 1 ml sterile EM. […] The cultures were incubated, shaking, at 30° C. for 3 hours. An aliquot of each culture was passed through a 0.2 μM filter (Corning® Costar® Spin-X® centrifuge tube filters) to generate cell-free supernatant. To a sterile 96-well plate round-bottom plate, 80 μL of unfiltered culture was added to each well to include five replicates for each condition. To another sterile 96-well plate round-bottom plate, 80 μL of the cell-free supernatant was added to each well to replicate the layout of the culture plate. Using a Rainin Liquidator™ 96-channel benchtop pipettor, 5 μL of the cell-free supernatant was pulled up into 20 μL Rainin pipette tips. These tips then were lowered down into the wells of the culture plate so the tips were submerged to half the depth of the culture volume in the wells. This set-up was incubated at room temperature for 30 min, during which time the cells in the culture can swim up into the supernatant in the pipette tips. After incubation, the contents of the tips were ejected into the wells of a sterile 96-well plate (Corning, flat-bottom, #3595) to which 195 μL of sterile TSB medium was added to each well. This plate was immediately placed in a FLUOstar Omega microplate reader (BMG Labtech, Offenburg, Germany) and growth curves monitored by measuring absorbance (600 nm) every 10 min for 12-16 hrs, with 30° C. incubation and constant shaking. The growth curves were plotted and the times at which the absorbance passed 0.5 was determined for each plot. The time difference between a particular condition and a reference condition (as indicated in FIG. 5C) represents the “exploration response” of Aer01 in that condition.
An “exploration assay” was used to measure population-level motility. For this assay Aer01 was incubated in the presence/absence of amino acid ligand (1 mM) for˜4 hrs, then the culture was added to the wells of a 96-well plate and pipette tips filled with the cell-free supernatant of the same cultures was lowered into the wells (FIG. 13). During a 30 min incubation period the Aer01 cells in the wells swam up into the pipette tips. […] To quantify the number of cells in the pipette tips after the 30 min exploration time, the contents of the pipette tips were ejected into the wells of a 96-well plate containing rich media and growth curves were monitored. […] This time difference between conditions, “exploration response,” was calculated to compare across many strains and conditions (FIG. 12C).

[7] = test system: Aer01 SpdE tandem PAS/dCache region (residues 37-287); assay: Thermofluor (thermal shift) assay, Aer01 SpdE; format: binding, Aeromonas veronii; details: 10 mM pure amino acid, replicate ΔTm data
Protocol: Thermofluor Assay. The periplasmic portion of SpdE was cloned, expressed and purified in E. coli. Thermofluor assays were performed using a Thermo Fisher Scientific StepOnePlus Real-time PCR instrument. Each 20 μL sample contained 0.1 mg/mL SpdE protein, 4× SYPRO Orange dye, 165 mM NaCl, 80 mM Tris pH 7.5 and 10 mM ligand (free amino acid dissolved in water). All samples were done in triplicate and repeated 2-3 times on different days. All reagents and steps were performed at 4° C. and placed in 96 well PCR plates. The PCR plate was slowly heated (˜0.03° C./sec) from 4° C. to 80° C. in the StepOnePlus instrument and fluorescent measurements were taken every 8.5 sec. The resultant thermal shift curves were analyzed to find the inflexion points, which correspond to the melting temperature (Tm) of the protein (with or without ligand). Inflexion points were determined in Microsoft Excel by calculating the half way point between the minimum fluorescence value prior to fluorescence increase and the maximum fluorescence value. The Tm difference between protein with and without ligand was calculated and plotted to determine the thermal stability shift as a proxy for ligand binding.
In order to identify SpdE ligands, a thermal shift assay was conducted using 96-well Biolog Phenotype MicroArray plates as a high-throughput approach to screen compounds for ligand candidates. Using heterologously expressed and purified tandem PAS/dCache region of the protein (residues 37-287), ˜200 compounds were screened for ones that conferred a significant shift in protein thermal stability (see Table 4). […] For each curve, the melting temperature (Tm) was determined (brown circles), which corresponds to the midpoint of protein unfolding. The ΔTm (difference between test Tm and water control Tm) was calculated for each amino acid condition.

CC(C)[C@H](N)C(=O)O [valine]
median CI (competitive index) of ΔspdE versus WT [1]: 7 | number of motile cells (Aer01 [2]; WT Aer01, 1 μM and 1 mM ligand): striking increase | motility (Aer01 [2]; WT Aer01, below 1 μM ligand): little increase | immigration rate of WT Aer01 into fish [3]: migrated into the fish faster | intracellular c-di-GMP [4]: significantly lower | biofilm formation (Aer01 [5]): more robust biofilms in the absence of ligand | exploration response (Aer01 [6]): 13.2 min | thermal shift (ΔTm) in words [7]: largest shifts
